We go through 23 molecules from patent publication US10414734B2, “5-hydroxyalkylbenzimidazoles as mIDH1 inhibitors” (BAYER PHARMA AKTIENGESELLSCHAFT, priority 2015, dated 2019).

Each structure is given as a SMILES string.

IDH1 R132H enzyme, sequence (O75874 whole entry R132H): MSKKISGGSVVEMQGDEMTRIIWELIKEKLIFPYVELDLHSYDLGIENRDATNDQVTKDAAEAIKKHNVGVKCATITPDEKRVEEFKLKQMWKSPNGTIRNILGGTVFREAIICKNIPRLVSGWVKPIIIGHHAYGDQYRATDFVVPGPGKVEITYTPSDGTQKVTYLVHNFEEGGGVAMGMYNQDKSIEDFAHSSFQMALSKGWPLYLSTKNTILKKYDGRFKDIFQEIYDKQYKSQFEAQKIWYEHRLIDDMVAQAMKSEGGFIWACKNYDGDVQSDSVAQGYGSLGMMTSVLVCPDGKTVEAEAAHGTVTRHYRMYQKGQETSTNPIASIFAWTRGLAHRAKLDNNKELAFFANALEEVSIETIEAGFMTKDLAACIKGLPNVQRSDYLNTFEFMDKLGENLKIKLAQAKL

This assay has as its target IDH1 R132H enzyme (Homo sapiens (Human), UniProt O75874, R132H). Description: Mutant IDH1 R132H biochemical assay. The following applies: luminescent NADPH consumption readout; 1.5 nM enzyme, 1 μM NADPH, 250 μM α-KG, 30 min, 32° C. On the procedure: Mutant IDH1 R132H Biochemical Assay
mIDH1 catalyzes the NADPH-dependent reduction of alpha-ketoglutarate (α-KG) to (2R)-2-hydroxyglutarate (2-HG). NADPH consumption was measured by luminescent readout.
The biochemical reactions were performed at 32° C. in 384-well plates using a reaction volume of 41 μL and the following assay buffer conditions: 50 mM Tris pH 7.5, 100 mM NaCl, 20 mM MgCl2, 0.05% BSA, 0.01% Brij, 1 μM NADPH, and 250 μM α-KG. The IDH1 R132H enzyme was used in a final concentration of 1.5 nM. Test compounds were used in a concentration range between 0.002 and 10 μM. The final DMSO concentration was 2.4%.
The reaction was incubated for 30 minutes, then 40 μL of detection mix (0.75 μg/ml Luciferase, 0.02 U/ml Oxidoreductase, 4 μg/mL FMN, 2 μL/ml decanal/ethanol, 50 mM Tris pH 7.5, 0.5% Glycerin, 0.01% Tween-20, 0.05% BSA) was added. Luminescence was measured on a luminescent reader (10 seconds measuring time, 1 second integration period, 30% sensitivity). The decrease in luminescence is proportional to mIDH1 activity. IC50 values are determined by interpolation from plots of relative luminescence versus inhibitor concentration.
In turn, `COc1cc2c(cc1CC(C)(C)O)nc(Nc1ccc(OC(F)(F)F)cc1)n2[C@H]1C[C@@H](C)CC(C)(C)C1` (single isomer, unassigned; enantiomer a) [Example 2-9-1, 1-(6-methoxy-2-{[4-(trifluoromethoxy)phenyl]amino}-1-[(cis)-3,3,5-trimethylcyclohexyl]-1H-benzimidazol-5-yl)-2-methylpropan-2-ol, enantiomer A] had a 50% inhibitory concentration (IC50) of 30 nM.

Molecule `Cc1cc2c(cc1CC(C)(C)O)nc(Nc1ccc(OC(F)(F)F)cc1)n2[C@H]1C[C@@H](C)CC(C)(C)C1` (racemic) [Example 2-8, (±) 2-methyl-1-(6-methyl-2-{[4-(trifluoromethoxy)phenyl]amino}-1-[(cis)-3,3,5-trimethylcyclohexyl]-1H-benzimidazol-5-yl)propan-2-ol] came in with an IC50 of 30 nM.

`CC(C)[C@@H]1CC[C@@H](C)C[C@H]1n1c(Nc2ccc(OC(F)(F)F)cc2)nc2cc(CCC(C)(C)O)ccc21` [Example 2-18, 4-(1-[(1R,2S,5R)-2-isopropyl-5-methylcyclohexyl]-2-{[4-(trifluoro-methoxy)phenyl]amino}-1H-benz-imidazol-5-yl)-2-methylbutan-2-ol] displayed a half-maximal inhibitory concentration (IC50) of 100 nM. The figure for `C[C@@H]1C[C@H](n2c(Nc3ccc(OC(F)(F)F)cc3)nc3cc(CC(C)(C)O)c(F)cc32)CC(C)(C)C1` (single isomer, unassigned; enantiomer a) [Example 2-10-1, 1-(6-fluoro-2-{[4-(trifluoromethoxy)phenyl]amino}-1-[(cis)-3,3,5-trimethylcyclohexyl]-1H-benzimidazol-5-yl)-2-methylpropan-2-ol, enantiomer A] is 320 nM; for `CC(C)Oc1ccc(Nc2nc3cc(CCC(C)(C)O)ccc3n2[C@@H]2C[C@H](C)CC[C@H]2C(C)C)cc1` [Example 2-20, 4-{2-[(4-isopropoxyphenyl)amino]-1-[(1R,2S,5R)-2-isopropyl-5-methylcyclohexyl]-1H-benzimidazol-5-yl}-2-methylbutan-2-ol] it is 300 nM; for `C[C@@H]1C[C@H](n2c(Nc3ccc(OC(F)(F)F)cc3)nc3cc(CCC(C)(C)O)ccc32)CC(C)(C)C1` (single isomer, unassigned; enantiomer a) [Example 2-11-1, 2-methyl-4-(2-{[4-(trifluoromethoxy)phenyl]amino}-1-[(cis)-3,3,5-trimethylcyclohexyl]-1H-benzimidazol-5-yl)butan-2-ol, enantiomer A] it is 210 nM. The molecule `COc1cc2c(cc1CCC(C)(C)O)nc(Nc1ccc(OC(F)(F)F)cc1)n2[C@H]1C[C@@H](C)CC(C)(C)C1` (single isomer, unassigned; enantiomer a) [Example 2-12-1, 4-(6-methoxy-2-{[4-(trifluoromethoxy)phenyl]amino}-1-[(cis)-3,3,5-trimethylcyclohexyl]-1H-benzimidazol-5-yl)-2-methylbutan-2-ol, enantiomer A] returned an IC50 of 50 nM.

For the molecule `Cc1cc2c(cc1CC(C)(C)O)nc(Nc1ccc(OC(F)(F)F)cc1)n2[C@H]1C[C@@H](C)CC(C)(C)C1` (single isomer, unassigned; enantiomer b) [Example 2-8-2, 2-methyl-1-(6-methyl-2-{[4-(trifluoromethoxy)phenyl]amino}-1-[(cis)-3,3,5-trimethylcyclohexyl]-1H-benzimidazol-5-yl)propan-2-ol, enantiomer B], the IC50 was 10 nM.

Consider `CC(C)[C@@H]1CC[C@@H](C)C[C@H]1n1c(Nc2ccc(OC(F)(F)F)cc2)nc2cc(C(C)(C)O)ccc21` [Example 2-13, 2-(1-[(1R,2S,5R)-2-isopropyl-5-methylcyclohexyl]-2-{[4-(trifluoromethoxy)phenyl]-amino}-1H-benzimidazol-5-yl)propan-2-ol], for which the IC50 is 80 nM. In turn, `COc1cc2c(cc1C(C)(C)O)nc(Nc1ccc(OC(F)(F)F)cc1)n2[C@H]1C[C@@H](C)CC(C)(C)C1` (racemic) [Example 2-7, (±) 2-(6-methoxy-2-{[4-(trifluoromethoxy)phenyl]amino}-1-[(cis)-3,3,5-trimethylcyclohexyl]-1H-benzimidazol-5-yl)propan-2-ol] had an IC50 of 20 nM. `COc1cc2c(cc1CCC(C)(C)O)nc(Nc1ccc(OC(F)(F)F)cc1)n2[C@H]1C[C@@H](C)CC(C)(C)C1` (single isomer, unassigned; enantiomer b) [Example 2-12-2, 4-(6-methoxy-2-{[4-(trifluoromethoxy)phenyl]amino}-1-[(cis)-3,3,5-trimethylcyclohexyl]-1H-benzimidazol-5-yl)-2-methylbutan-2-ol, enantiomer B] registered an IC50 of 10 nM.

For the molecule `C[C@@H]1C[C@H](n2c(Nc3ccc(OC(F)(F)F)cc3)nc3cc(CO)ccc32)CC(C)(C)C1` (single isomer, unassigned; enantiomer b) [Example 2-1-2, (2-{[4-(trifluoromethoxy)phenyl]amino}-1-[(cis)-3,3,5-trimethylcyclohexyl]-1H-benzimidazol-5-yl)methanol, enantiomer B], the IC50 was found to be 70 nM.

Molecule `CC(C)Oc1ccc(Nc2nc3cc(CC(C)(C)O)ccc3n2[C@@H]2C[C@H](C)CC[C@H]2C(C)C)cc1` [Example 2-17, 1-{2-[(4-isopropoxyphenyl)amino]-1-[(1R,2S,5R)-2-isopropyl-5-methylcyclohexyl]-1H-benz-imidazol-5-yl}-2-methylpropan-2-ol] displayed an IC50 of 160 nM. For `Cc1cc2c(cc1C(C)(C)O)nc(Nc1ccc(OC(F)(F)F)cc1)n2[C@H]1C[C@@H](C)CC(C)(C)C1` (single isomer, unassigned; enantiomer a) [Example 2-3-1, 2-(6-methyl-2-{[4-(trifluoromethoxy)phenyl]amino}-1-[(cis)-3,3,5-trimethylcyclohexyl]-1H-benzimidazol-5-yl)propan-2-ol, enantiomer A] the value was 80 nM. The figure for `CC(C)c1ccc(Nc2nc3cc(CCC(C)(C)O)ccc3n2[C@@H]2C[C@H](C)CC[C@H]2C(C)C)cc1` [Example 2-19, 4-{1-[(1R,2S,5R)-2-isopropyl-5-methylcyclohexyl]-2-[(4-isopropyl-phenyl)amino]-1H-benzimidazol-5-yl}-2-methylbutan-2-ol] is 290 nM; for `COc1cc2c(cc1CC(C)(C)O)nc(Nc1ccc(OC(F)(F)F)cc1)n2[C@H]1C[C@@H](C)CC(C)(C)C1` (racemic) [Example 2-9, (±) 1-(6-methoxy-2-{[4-(trifluoromethoxy)phenyl]amino}-1-[(cis)-3,3,5-trimethylcyclohexyl]-1H-benzimidazol-5-yl)-2-methylpropan-2-ol] it is 20 nM; for `COc1cc2c(cc1CO)nc(Nc1ccc(OC(F)(F)F)cc1)n2[C@H]1C[C@@H](C)CC(C)(C)C1` (racemic) [Example 2-6, (±) (6-methoxy-2-{[4-(trifluoromethoxy)phenyl]amino}-1-[(cis)-3,3,5-trimethylcyclohexyl]-1H-benzimidazol-5-yl)methanol] it is 20 nM. The figure for `Cc1cc2c(cc1CC(C)(C)O)nc(Nc1ccc(OC(F)(F)F)cc1)n2[C@H]1C[C@@H](C)CC(C)(C)C1` (single isomer, unassigned; enantiomer a) [Example 2-8-1, 2-methyl-1-(6-methyl-2-{[4-(trifluoromethoxy)phenyl]amino}-1-[(cis)-3,3,5-trimethylcyclohexyl]-1H-benzimidazol-5-yl)propan-2-ol, enantiomer A] is 120 nM; for `C[C@@H]1C[C@H](n2c(Nc3ccc(OC(F)(F)F)cc3)nc3cc(CC(C)(C)O)c(F)cc32)CC(C)(C)C1` (racemic) [Example 2-10, (±) 1-(6-fluoro-2-{[4-(trifluoromethoxy)phenyl]amino}-1-[(cis)-3,3,5-trimethylcyclohexyl]-1H-benzimidazol-5-yl)-2-methylpropan-2-ol] it is 240 nM; for `Cc1cc2c(cc1C(C)(C)O)nc(Nc1ccc(OC(F)(F)F)cc1)n2[C@H]1C[C@@H](C)CC(C)(C)C1` (single isomer, unassigned; enantiomer b) [Example 2-3-2, 2-(6-methyl-2-{[4-(trifluoromethoxy)phenyl]amino}-1-[(cis)-3,3,5-trimethylcyclohexyl]-1H-benzimidazol-5-yl)propan-2-ol, enantiomer B] it is 20 nM. As for `CC(C)c1ccc(Nc2nc3cc(CC(C)(C)O)ccc3n2[C@@H]2C[C@H](C)CC[C@H]2C(C)C)cc1` [Example 2-16, 1-{1-[(1R,2S,5R)-2-isopropyl-5-methylcyclohexyl]-2-[(4-isopropyl-phenyl)amino]-1H-benzimidazol-5-yl}-2-methylpropan-2-ol], 60 nM corresponded to half-maximal inhibition (IC50). For `CC(C)c1ccc(Nc2nc3cc(C(C)(C)O)ccc3n2[C@@H]2C[C@H](C)CC[C@H]2C(C)C)cc1` [Example 2-14, 2-{1-[(1R,2S,5R)-2-isopropyl-5-methylcyclohexyl]-2-[(4-isopropyl-phenyl)amino]-1H-benzimidazol-5-yl}propan-2-ol] the value was 120 nM.

In the case of `CC(C)[C@@H]1CC[C@@H](C)C[C@H]1n1c(Nc2ccc(OC(F)(F)F)cc2)nc2cc(CC(C)(C)O)ccc21` [Example 2-15, 1-(1-[(1R,2S,5R)-2-isopropyl-5-methylcyclohexyl]-2-{[4-(trifluoro-methoxy)phenyl]amino}-1H-benz-imidazol-5-yl)-2-methylpropan-2-ol], the IC50 came out at 40 nM.

As a reminder, the IC50 is the concentration that gives 50% inhibition. A high value points to weaker potency in that assay.
